This is an account of results in patent US4092412A, “Treatment of herpes simplex infections” (Abbott Laboratories, priority 1977, dated 1978).

In experiment [1] the target is T1, Herpes simplex type 2 deoxyribonucleic acid (DNA) polymerase (Human herpesvirus 2, UniProt P89453).
T1 construct: made in house; host or cells: Herpes virus infected Wi-38 cells (native viral enzyme, not recombinant; DEAE-cellulose and phosphocellulose chromatography)
T1 sequence (P89453 1-1240): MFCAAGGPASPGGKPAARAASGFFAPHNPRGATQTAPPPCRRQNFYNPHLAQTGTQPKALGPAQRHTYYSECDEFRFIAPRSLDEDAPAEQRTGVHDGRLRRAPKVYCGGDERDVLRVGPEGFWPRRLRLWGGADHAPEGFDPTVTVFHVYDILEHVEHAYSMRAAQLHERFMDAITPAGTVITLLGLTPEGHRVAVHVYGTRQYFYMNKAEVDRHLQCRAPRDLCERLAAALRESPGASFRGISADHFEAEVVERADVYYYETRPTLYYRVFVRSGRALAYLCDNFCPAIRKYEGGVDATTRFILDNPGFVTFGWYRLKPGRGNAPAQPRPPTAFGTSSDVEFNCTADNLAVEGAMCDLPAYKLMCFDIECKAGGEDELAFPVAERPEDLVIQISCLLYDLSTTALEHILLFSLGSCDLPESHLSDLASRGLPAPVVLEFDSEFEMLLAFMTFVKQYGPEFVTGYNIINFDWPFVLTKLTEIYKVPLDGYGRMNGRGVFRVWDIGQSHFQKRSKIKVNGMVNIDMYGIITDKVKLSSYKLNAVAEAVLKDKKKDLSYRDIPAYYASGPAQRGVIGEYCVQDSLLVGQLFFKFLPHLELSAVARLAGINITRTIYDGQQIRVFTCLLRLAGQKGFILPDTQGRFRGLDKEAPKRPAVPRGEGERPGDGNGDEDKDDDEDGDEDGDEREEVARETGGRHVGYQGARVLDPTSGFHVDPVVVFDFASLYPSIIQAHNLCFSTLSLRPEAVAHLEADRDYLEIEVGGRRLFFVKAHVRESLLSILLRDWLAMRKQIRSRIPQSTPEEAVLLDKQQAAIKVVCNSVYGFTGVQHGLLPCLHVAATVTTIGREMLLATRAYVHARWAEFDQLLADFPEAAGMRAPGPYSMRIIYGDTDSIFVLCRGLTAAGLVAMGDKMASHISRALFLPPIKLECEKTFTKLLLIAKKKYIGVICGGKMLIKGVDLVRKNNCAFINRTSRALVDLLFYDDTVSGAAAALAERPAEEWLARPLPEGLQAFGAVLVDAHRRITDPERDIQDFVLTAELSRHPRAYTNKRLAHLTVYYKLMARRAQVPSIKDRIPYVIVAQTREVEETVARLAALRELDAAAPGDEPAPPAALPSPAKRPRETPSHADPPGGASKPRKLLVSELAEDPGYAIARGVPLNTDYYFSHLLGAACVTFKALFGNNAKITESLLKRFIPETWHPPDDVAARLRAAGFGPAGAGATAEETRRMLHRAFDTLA
Nature of the experiment: Viral DNA polymerase assay. In kind it is biochemical, herpes simplex virus type 2. The conditions noted are these: 50% inhibition of herpes simplex type 2 DNA polymerase; read-out: Concentration (μg/ml) giving 50% Percent Inhibition (converted). As to the method: Isolation and Purification of Herpes Simplex Type 2 Deoxyribonucleic Acid (DNA) Polymerase
The DNA polymerase was isolated according to the procedure of Smith and Gallo (1972) which involved column chromatography on DEAE-cellulose and phosphocellulose. However, buffer containing 20% glyceryl instead of 10% was used. The final enzyme preparation has a specific activity of 313 unit/mg. for herpes simplex virus type 2.
Viral Deoxyribonucleic Acid (DNA) Polymerase Assay
The reaction mixture (0.2 ml.) contains 10 μM of 2'-deoxyadenosine-5'-triphosphate, 2'-deoxycytidine-5'-triphosphate, 2'-deoxyguanosine-5'-triphosphate, and 2.5 μM tritium labeled thymidine-5'-triphosphate which was appropriately diluted with unlabeled dTTP to give 880 counts per minute per pico-mole, 10 μg of activated calf thymus DNA 50 mM Tris-HCl buffer (pH 8.0), 3mM MgCl2, 100 mM KCl and 1 mM dithiothritol. The amounts of enzyme used in each reaction was chosen to give a linear rate for at least 30 minutes at 37° C. The reaction was terminated by the addition of 3 ml. of cold 5% trichloroacetic acid - 0.01 M sodium pyrophosphate. The acid-insoluble material was collected, washed twice on glass filter discs (Reeve Angel 984-H) and the incorporated ^3 H-dTMP was determined by a liquid scintillation counter.

Experiment [2] has as its system herpes simplex virus (HSV) type 1 or type 2. Briefly: Antiviral activity by plaque reduction method. In kind it is cell-based, herpes simplex virus (in rabbit kidney cells). Set-up: key: 0 = inactive; +2 = moderate activity; +4 = very active. As to conditions: rabbit kidney cells, plaques counted 3 to 4 days after infection. How it is done: Determination of Antiviral Activity by Plaque Reduction Method
The inhibitory effect of new compounds upon herpes simplex virus (HSV) type 1 or type 2 was analyzed by the plaque reduction assay. Confluent monolayers of rabbit kidney cells grown in 60 mm plastic petri dishes were infected with HSV by adsorption for 1 hour at room temperature. The appropriate concentration of the test compound was added at the time of initial virus infection. Following virus adsorption the cells were overlayed with Eagle's medium (BME) supplemented with 10% fetal bovine serum, 0.225% NaHCO3 and 0.5% methycellulose. The appropriate concentration of the test compound was also added to this overlay. Infected cultures were then incubated at 37° C. for the remainder of the test. Three to four days following virus infection, each culture was stained with crystal violet and the herpes virus induced plaques counted.
A general note: In a plaque reduction assay, fewer plaques than in the control indicate reduced infectivity or spread.

The test system of experiment [3] is herpes simplex infections. Briefly: Topical test against herpes simplex infections in CF mice. The class given is in vivo. As to conditions: 10 mice per group, topical 2% aqueous solution, 11 applications, 14 day test. How it is done:
The following test was applied to determine the effectiveness of the carboxylic esters of phosphonoacetic acid against herpes simplex infections in mice. The compounds tested included the compounds shown above as II and III. Also included were a standard virus control as well as a normal (no virus) control.
Herpes virus (10^7 TCID50 /ml) was applied topically (0.05 ml) to the denuded skin and impregnated into the dermis with a 24-gauge sterile hypodermic needle. In untreated animals, herpes lesions or vesicles usually develop in 3 to 5 days. The lesions form bands which extend over the denuded area. After approximately 10 days, mice usually develop a paralysis which results in their death. The test was allowed to continue for a total of 14 days.
Some of the animals were treated topically by having the drug applied to the site of infection as a 2% aqueous solution 2 hours after the virus was introduced into the skin, and twice daily for 5 consecutive days. The drug was applied a total of 11 times. A single application of a 2% drug solution delivered approximately 2 mg of material.
The Mann-Whitney "U" Test was used to statistically analyze the herpes infection in mice by making paired comparisons between the treated and untreated virus control groups. […]

On to `COC(=O)CP(=O)(O)O` [Compound III, Methyl Phosphonoacetate], for which the IC50 in experiment [1] was 45.4 µM. For the same compound, the Inhibition of plaques result in experiment [2] is given as “+2”. In experiment [3], the “No. of Mice Dead” value is on record as 5 and the “No. of Mice Paralyzed” value was 2.

Regarding `CCOC(=O)CP(=O)(O)O` [Compound II, Ethyl Phosphonoacetate], the IC50 in experiment [1] was 23.2 µM. Also, the Inhibition of plaques result in experiment [2] was “+4”. Moreover, in experiment [3], the “No. of Mice Dead” value is on record as 3 and the “No. of Mice Paralyzed” value is on record as 2.
